According to article PMC5291098, “Molecular mutagenesis of ppGpp: turning a RelA activator into an inhibitor” (Scientific Reports, 2017):
Entries after “also recorded” stand apart in the source; their conditions may differ.

Test system: T1, RelA binding to 70S initiation complexes
T1 construct: made in house
Assay: Spin down assay of RelA binding to 70S initiation complexes
Set-up: species or system Escherichia coli
Settings: 500 μM compound; 2 μM RelA, 1 μM 70S IC programmed with mRNA(MF), with or without tRNAPhe
Method: Figure 4 Functional studies of DR-M014 and DR-4250 with programmed ribosomal complexes. (a,b) Inhibition of RelA activated by starved ribosomal complexes containing deacylated A-site tRNA^Phe. The reaction mixture contained 30 nM RelA, 0.5 μM 70S, 2 μM tRNA^Phe, 2 μM tRNAi^Met, 2 μM mRNA(MF), 100 μM ppGpp, 0.3 mM [^3H] GDP and 1 mM ATP. The experiments were performed in HEPES:Polymix buffer with 5 mM Mg^2+. Error bars represent standard deviations of linear regression estimates, each experiment was performed at least three times. […] Reaction mixture containing combinations of 2 μM RelA, 1 μM 70S initiation complexes programmed with mRNA(MF), 3 μM deacylated tRNA^Phe and test compounds at 500 μM was preincubated at 37 °C for 15 minutes prior to loading 50 μl samples on top of a 50 μl 30% sucrose cushion. After centrifugation for 25 minutes (70,000 r.p.m. at 12 °C) the supernatants were quickly aspirated, the pellets resuspended in 20 μl of SDS loading buffer, and the proteins resolved on 10% SDS-PAGE gel.
The ppGpp-analogues reported earlier promote RelA association with 70S ribosome[25][26] and are, therefore, promising tools for generating stable 70S:RelA complexes for structural investigations. […]
3', 300 μM 3H-GDP, 100 μM ppGpp was pre-incubated at 37° C for 2 min and then reaction started by addition of 1 mM ATP, time points (5 μl) taken, quenched with formic acid and analyzed by TLC. […]

Nc1nc2c(ncn2C2CCN(C(=O)P(=O)(O)O)CC2)c(=O)[nH]1 [DR-M014]
Effect on RelA binding to 70S initiation complexes (in words): promote RelA binding to 70S initiation complexes; also recorded: significantly promotes RelA binding
